Legend:
TP53-binding protein 1 [1] = biological target: T1, TP53-binding protein 1 (Homo sapiens, UniProt Q12888); test: Inhibition of recombinant human N-terminal His6-tagged 53BP1 TTD (1484 to1603 residues) expressed in Escherichia coli BL21 (DE3) cells using Biotin-H4K2Ome2 as substrate preincubated for 30 mins followed by substrate addition and measured after 30 mins by AlphaScreen assay
TP53-binding protein 1 [2] = biological target: T1, TP53-binding protein 1; test: Binding affinity to recombinant human N-terminal His6-tagged lysine dye- labeled 53BP1 TTD (1484 to1603 residues) expressed in Escherichia coli BL21 (DE3) cells incubated for 10 mins by MST assay
TP53-binding protein 1 [3] = biological target: T1, TP53-binding protein 1; test: Binding affinity to recombinant human N-terminal His6-tagged 53BP1 TTD (1484 to1603 residues) expressed in Escherichia coli BL21 (DE3) cells by SPR analysis

T1 sequence (Q12888 whole entry, the tested form may be a part): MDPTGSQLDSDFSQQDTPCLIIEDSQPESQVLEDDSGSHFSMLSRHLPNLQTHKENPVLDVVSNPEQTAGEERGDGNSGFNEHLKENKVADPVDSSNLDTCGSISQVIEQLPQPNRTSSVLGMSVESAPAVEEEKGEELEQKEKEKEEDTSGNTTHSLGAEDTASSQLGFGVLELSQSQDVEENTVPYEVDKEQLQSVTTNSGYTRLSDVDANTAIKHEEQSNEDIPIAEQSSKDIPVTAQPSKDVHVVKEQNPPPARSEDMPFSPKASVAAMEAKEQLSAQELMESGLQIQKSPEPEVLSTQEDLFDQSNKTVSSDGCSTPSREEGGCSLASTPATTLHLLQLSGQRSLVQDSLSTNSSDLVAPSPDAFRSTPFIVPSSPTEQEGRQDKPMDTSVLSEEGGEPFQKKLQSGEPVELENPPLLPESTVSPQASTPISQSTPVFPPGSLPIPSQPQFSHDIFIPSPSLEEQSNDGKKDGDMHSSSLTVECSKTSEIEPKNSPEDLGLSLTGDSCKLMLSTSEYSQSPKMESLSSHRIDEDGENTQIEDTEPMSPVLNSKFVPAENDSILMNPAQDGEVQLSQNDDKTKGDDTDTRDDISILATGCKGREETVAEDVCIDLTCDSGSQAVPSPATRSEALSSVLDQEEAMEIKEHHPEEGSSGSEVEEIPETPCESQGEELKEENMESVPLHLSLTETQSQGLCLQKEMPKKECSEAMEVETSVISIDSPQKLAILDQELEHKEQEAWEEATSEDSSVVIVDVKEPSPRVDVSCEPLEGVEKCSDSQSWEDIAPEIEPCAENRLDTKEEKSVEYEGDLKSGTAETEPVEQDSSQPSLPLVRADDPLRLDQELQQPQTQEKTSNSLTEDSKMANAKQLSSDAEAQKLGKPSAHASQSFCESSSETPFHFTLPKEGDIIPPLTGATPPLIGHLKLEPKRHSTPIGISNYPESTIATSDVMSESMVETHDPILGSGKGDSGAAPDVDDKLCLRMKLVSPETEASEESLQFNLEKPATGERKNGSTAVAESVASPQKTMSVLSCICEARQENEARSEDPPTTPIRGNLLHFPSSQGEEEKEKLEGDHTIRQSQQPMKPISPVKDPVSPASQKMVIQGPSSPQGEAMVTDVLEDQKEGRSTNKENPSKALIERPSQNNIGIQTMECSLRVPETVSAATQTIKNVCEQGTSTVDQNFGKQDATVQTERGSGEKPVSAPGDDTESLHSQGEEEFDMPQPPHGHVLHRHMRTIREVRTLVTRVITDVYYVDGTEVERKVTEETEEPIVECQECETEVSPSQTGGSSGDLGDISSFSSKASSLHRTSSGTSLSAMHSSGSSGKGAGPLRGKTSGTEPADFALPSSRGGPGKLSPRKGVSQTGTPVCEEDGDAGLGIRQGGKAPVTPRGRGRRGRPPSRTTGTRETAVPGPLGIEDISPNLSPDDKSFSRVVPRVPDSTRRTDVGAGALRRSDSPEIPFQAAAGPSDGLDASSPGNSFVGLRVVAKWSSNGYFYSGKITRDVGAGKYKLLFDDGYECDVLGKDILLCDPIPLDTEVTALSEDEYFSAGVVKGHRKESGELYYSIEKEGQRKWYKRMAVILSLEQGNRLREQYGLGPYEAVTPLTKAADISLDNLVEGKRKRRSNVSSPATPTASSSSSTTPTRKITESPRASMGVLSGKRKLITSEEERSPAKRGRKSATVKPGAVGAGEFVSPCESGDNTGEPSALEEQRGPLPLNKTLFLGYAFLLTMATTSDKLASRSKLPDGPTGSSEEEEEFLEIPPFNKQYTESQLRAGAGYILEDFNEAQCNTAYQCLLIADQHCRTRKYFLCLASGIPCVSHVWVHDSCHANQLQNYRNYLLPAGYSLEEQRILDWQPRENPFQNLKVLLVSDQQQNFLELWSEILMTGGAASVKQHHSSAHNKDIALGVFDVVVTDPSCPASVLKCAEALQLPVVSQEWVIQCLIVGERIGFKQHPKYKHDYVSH

Compound	IC50 (TP53-binding protein 1 [1]) [µM]	Kd (TP53-binding protein 1 [2]) [µM]	Kd (TP53-binding protein 1 [3]) [µM]
CN(C)c1ccc2cc(NC(=O)/C=C/c3cccc4cccnc34)ccc2n1	> 50	–	–
CCN(CC)c1cc(C)c2cc(N(C)C(=O)/C=C/c3ccco3)ccc2n1	17.8	–	–
CCN(CC)c1cc(C)c2cc(NC(=O)/C=C/c3ccc4ccoc4c3)ccc2n1	> 50	–	–
CCN(CC)c1cc(C)c2cc(NC(=O)/C=C/c3ccccn3)ccc2n1	31.3	–	–

Further lines, results first:

IC50 (TP53-binding protein 1 [1]) [µM]	Kd (TP53-binding protein 1 [2]) [µM]	Kd (TP53-binding protein 1 [3]) [µM]	Compound
4.2	–	–	Cc1cc(N(C)C)nc2ccc(NC(=O)/C=C/c3ccco3)cc12
> 50	–	–	O=C(/C=C/c1ccco1)Nc1cccc2ncccc12
15.1	–	–	Cc1cc(N2CCCCC2)nc2ccc(NC(=O)/C=C/c3ccco3)cc12
22.3	–	–	Cc1cc2cc(NC(=O)/C=C/c3ccco3)ccc2[nH]1
1.69	2.69	2.7	CCN(CC)c1cc(C)c2cc(NC(=O)/C=C/c3ccco3)ccc2n1
